The test system of the test is virus-specific CD8 T cells. On the set-up: species or system mice. As to conditions: mouse, in vivo.

With `Nc1ncn([C@H]2C[C@H](O)[C@@H](CO)O2)c(=O)n1` [DAC, 5-aza-2′-deoxycytidine], the “Ki67+ virus-specific CD8 T cells” value was “significant increase”; the T cell expansion result is “did not observe an enhancement”; the “expansion of virus-specific T cells in spleen, lungs and liver” value is “enhanced expansion”; the “quantity of gp33-specific CD8 T cells in the peripheral blood” value was “striking increase”.

These data come from patent US20200054660A1, “DNA M[…] FOR T-CELL IMMUNOTHERAPY” (priority 2016, published 2020).
